Source: paper PMC3676766, “New Radioligands for Describing the Molecular Pharmacology of MT1 and MT2 Melatonin Receptors” (International Journal of Molecular Sciences, 2013)
Several values for one entry are separate records, joined by “and”; a condition that tells them apart may be missing. Equal entries are not always repeated. Where two headings read alike, the source gives them in different places.

Experiments:
[1] = target: T1, hMT2 (Homo sapiens, UniProt P49286); experiment: HTRF (TR-FRET) cAMP assay, CHO-K1 cells expressing hMT2; type: cell-based; conditions: 5 μM forskolin; for EC50 / TR-FRET-cAMP Emax (%): hMT2; for EC50: read-out: TR-FRET-cAMP pEC50 (converted)
T1 construct: expressed in transfected cells; membranes or whole cells
T1 sequence (P49286 1-362): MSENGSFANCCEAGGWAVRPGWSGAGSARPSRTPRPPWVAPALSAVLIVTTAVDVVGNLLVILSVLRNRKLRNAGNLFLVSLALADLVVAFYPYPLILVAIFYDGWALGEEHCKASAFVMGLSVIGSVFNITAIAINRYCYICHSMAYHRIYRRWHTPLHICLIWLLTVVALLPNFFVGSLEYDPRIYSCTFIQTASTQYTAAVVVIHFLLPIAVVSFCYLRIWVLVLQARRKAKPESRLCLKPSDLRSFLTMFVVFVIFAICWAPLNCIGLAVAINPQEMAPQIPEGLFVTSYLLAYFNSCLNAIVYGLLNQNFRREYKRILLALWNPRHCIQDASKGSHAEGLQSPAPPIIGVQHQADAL
Experimental: (§1) Cellular cAMP production was measured using cAMP dynamic HTRF kits (Cisbio Bioassays, Bedford, MA, USA) according to the manufacturer’s instructions. CHO-K1 cells stably expressing the hMT1 or hMT2 receptor were grown to confluence, harvested in PBS buffer containing 5 mM EDTA, and centrifuged at 100× g for 10 min (4 °C). […] Next, 15 μL of cAMP-d2 conjugate and 15 μL of anti-cAMP-EuK conjugate in lysis buffer were incubated for 30 min at room temperature. […] Non-specific binding was assessed using 100 μM non-labeled cAMP. The data were analyzed using the program PRISM to yield the EC50 and Emax.

[2] = target: T1, hMT2; experiment: [35S]-GTPγS binding assay, hMT2; type: biochemical; conditions: for [35S]-GTPγS Emax (%) / Emax: percentage of melatonin (1 μM = 100%); for EC50: mean ± SEM, read-out: [35S]-GTPγS pEC50 (converted)
Experimental: (§2) CHO-K1 cell lines stably expressing the human MT1 or MT2 receptors were grown to confluence, harvested in PBS buffer (Gibco, Invitrogen, Saint-Aubin, France) containing 5 mM EDTA, and centrifuged at 1,000 g for 20 min (4 °C). The resulting pellet was suspended in 5 mM Tris/HCl (pH 7.4) containing 2 mM EDTA and homogenized using Kinematicapolytron. […] Protein content was determined according to Bradford using the Bio-Rad kit (Bio-Rad SA, Ivry-sur-Seine, France).
(§3) For the [^35S]-GTPγS binding assay, the membranes and compounds were diluted in the binding buffer (20 mM Hepes pH 7.4, 100 mM NaCl, 3 mM MgCl2, 3 μM GDP) in the presence of 20 μg/mL saponin in order to enhance the agonist-induced stimulation. Incubation was started by adding 0.1 nM [^35S]-GTPγS to the membranes and ligands in a final volume of 250 μL and allowed to continue for 60 min at room temperature. Non-specific binding was assessed using non-radiolabeled GTPγS (10 μM). Reactions were stopped by rapid filtration through GF/B unifilters pre-soaked with distilled water, followed by three successive washes with ice-cold buffer.

[3] = target: T2, hMT1 (Homo sapiens, UniProt P48039); experiment: [35S]-GTPγS binding assay, hMT1; type: biochemical; conditions: for [35S]-GTPγS Emax (%) / Emax: percentage of melatonin (1 μM = 100%); for EC50: mean ± SEM, read-out: [35S]-GTPγS pEC50 (converted)
T2 construct: expressed in transfected cells; membranes or whole cells
Experimental: as §2, §3

[4] = target: T2, hMT1; experiment: HTRF (TR-FRET) cAMP assay, CHO-K1 cells expressing hMT1; type: cell-based; conditions: 5 μM forskolin; for EC50: read-out: TR-FRET-cAMP pEC50 (converted)
Experimental: as §1

[5] = target: T2, hMT1; experiment: [125I]-2IMLT competition binding, CHO-K1 membranes, hMT1; conditions: 20 pM [125I]-2IMLT, 2 h 37 °C, mean ± SEM, read-out: Affinity pKi (converted)
Experimental: (§4) CHO-K1 cell lines stably expressing the human MT1 or MT2 receptors were grown to confluence, harvested in PBS buffer (Gibco, Invitrogen, Saint-Aubin, France) containing 5 mM EDTA, and centrifuged at 1,000 g for 20 min (4 °C). The resulting pellet was suspended in 5 mM Tris/HCl (pH 7.4) containing 2 mM EDTA and homogenized using Kinematicapolytron. The homogenate was then centrifuged (20,000 g, 30 min, 4 °C) and the resulting pellet suspended in 75 mM Tris/HCl (pH 7.4) containing 2 mM EDTA and 12.5 mM MgCl2. Protein content was determined according to Bradford using the Bio-Rad kit (Bio-Rad SA, Ivry-sur-Seine, France). Aliquots of membrane preparations were stored in re-suspension buffer (75 mM Tris/HCl pH 7.4, 2 mM EDTA, 12.5 mM MgCl2) at −80 °C until use.
(§5) The assays were described previously. […] The results were expressed as the inhibition constant Ki, taking into account the concentration of radioligand used in each experiment. Non-specific binding was defined using 10 μM melatonin. The reaction was stopped by rapid filtration through GF/B unifilters, followed by three successive washes with ice-cold buffer. The data were analyzed using the program PRISM (GraphPad Software Inc., San Diego, CA, USA).

[6] = target: T1, hMT2; experiment: [125I]-2IMLT competition binding, CHO-K1 membranes, hMT2; conditions: for Difference in affinity MT2 versus MT1: Ki/pKi better for MT2 than for MT1; for Ki: hMT2
Experimental: as §4, §5

[7] = system: standard set of receptors and a small number of enzymatic targets; experiment: Standard selectivity procedure (Cerep panel); type: binding; conditions: at 10 μM, cold compounds, transporters, channels, caspase-3, EGFR kinase, PKCα
Excerpt: […]

[8] = target: T2, hMT1; experiment: Saturation binding of iodinated radioligands, CHO-K1-hMT1 membranes; conditions: Scatchard
Experimental: as §4
The assays were performed in 96-well plates in 250 μL binding buffer (50 mM Tris/HCl pH 7.4, 5 mM MgCl2, 1 mM EDTA, plus BSA 0.1% for [^125I]-DIV880). The membranes, hMT1 and hMT2, were used at a final concentration of 30 μg of proteins/mL for all radioactive compounds. […]
(§6) The data were analyzed using the program PRISM (GraphPad Software Inc., San Diego, CA, USA). For the saturation assay, the binding site density (Bmax) and dissociation constant for the radioligand (Kd) were calculated according to the Scatchard method.

[9] = target: T1, hMT2; experiment: Saturation binding of iodinated radioligands, CHO-K1-hMT2 membranes; conditions: Scatchard; for Bmax: saturation
Experimental: as §4
The assays were performed in 96-well plates in 250 μL binding buffer (50 mM Tris/HCl pH 7.4, 5 mM MgCl2, 1 mM EDTA, plus BSA 0.1% for [^125I]-DIV880). The membranes, hMT1 and hMT2, were used at a final concentration of 30 μg of proteins/mL for all radioactive compounds. For all protocols, the reaction was stopped by rapid filtration through GF/B unifilters (PEI 0.1% treated for [^125I]-DIV880), followed by three successive washes with ice-cold buffer (50 mM Tris/HCl, pH 7.4).
as §6

[10] = CHO-K1, read-out: TR-FRET-cAMP Emax (%), hMT2
[11] = CHO-K1, read-out: TR-FRET-cAMP Emax (%), hMT1
[12] = CHO-K1, hMT2, read-out: TR-FRET-cAMP Emax (%)
[13] = hMT1, read-out: [35S]-GTPγS Emax (%)
[14] = 20 pM [125I]-2IMLT, 2 h 37 °C, mean ± SEM, read-out: Affinity pKi (converted)

T2 sequence (P48039 whole entry): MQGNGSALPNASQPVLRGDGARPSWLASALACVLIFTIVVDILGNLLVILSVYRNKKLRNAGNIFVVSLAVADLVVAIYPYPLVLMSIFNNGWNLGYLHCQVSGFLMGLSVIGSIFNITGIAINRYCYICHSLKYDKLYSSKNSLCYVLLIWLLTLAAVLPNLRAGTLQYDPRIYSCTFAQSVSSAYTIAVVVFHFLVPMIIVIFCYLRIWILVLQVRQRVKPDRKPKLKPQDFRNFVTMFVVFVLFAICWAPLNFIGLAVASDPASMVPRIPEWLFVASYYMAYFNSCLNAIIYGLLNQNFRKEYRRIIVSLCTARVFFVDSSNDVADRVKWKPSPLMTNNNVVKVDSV

COc1ccc2[nH]c(I)c(CCNC(C)=O)c2c1 [2IMLT, 2-iodomelatonin, reference compound]
Emax [1, 10]: ~100% | [35S]-GTPγS Emax (%) [2]: 121 ± 13% | [35S]-GTPγS Emax (%) ([3]; hMT1): 108 ± 3% | Emax ([3]; read-out: [35S]-GTPγS Emax (%), hMT1): > 100% | Emax [4, 11]: ~100%

COc1cc(I)c(Cc2cc(OC)c(OC)cc2CC(=O)OC(C)(C)C)cc1OC [DIV880]
Emax [1, 12]: 97 ± 1% | EC50 [1]: 16.2 nM | EC50 [2]: 10.7 nM | Emax [2]: 67 ± 8% | EC50 ([3]; hMT1): 1260 nM | Emax [3, 13]: 10 ± 1% | EC50 ([4]; hMT1): > 10000 nM | Ki [5]: 832 nM | Difference in affinity MT2 versus MT1 [6]: 2 logs | Ki [6, 14]: 9.55 nM | Ki ([6]; approximate range in text, read-out: affinity for MT2 (range given)): ~10 nM | effect on selectivity panel targets [7]: less than 20%

COc1ccc2[nH]c(-c3cccc4ccccc34)c(CCNC(=O)CI)c2n1 [S70254, 2-iodo-N-2-[5-methoxy-2-(naphthalen-1-yl)-1H-pyrrolo[3,2-b]pyridine-3-yl] Acetamide]
Emax [1, 12]: 73% | TR-FRET-cAMP Emax (%) [1]: 76.5 ± 1% | EC50 [1]: 33.9 nM | EC50 [2]: 2.04 nM | Emax [2]: 43 ± 1% | EC50 ([3]; hMT1): 79.4 nM | Emax [3, 13]: 15 ± 2% | Emax ([4]; CHO-K1, hMT1, read-out: TR-FRET-cAMP Emax (%)): 78 ± 12% | EC50 ([4]; hMT1): 1450 nM | Ki [5]: 661 nM | Ki [6, 14]: 1.86 nM | effect on selectivity panel targets [7]: less than 20%

COc1ccc2[nH]cc(CCNC(=O)CI)c2c1 [SD6, N-[2-(5-methoxy-1H-indol-3-yl)ethyl]iodoacetamide]
Emax [1, 10]: ~100% | TR-FRET-cAMP Emax (%) [1]: 103 ± 1% | Emax [2]: > 100% | [35S]-GTPγS Emax (%) [2]: 114 ± 16% | [35S]-GTPγS Emax (%) ([3]; hMT1): 115 ± 10% | Emax [3, 13]: > 100% | Emax [4, 11]: ~100% | TR-FRET-cAMP Emax (%) ([4]; hMT1): 103 ± 10% | Bmax [8]: 276 fmol/mg of protein

COc1ccc2[nH]c(-c3cccc4ccccc34)c(CCNC(=O)C[125I])c2n1 [[^125I]-S70254]
pKd ([9]; saturation 0.01–2 nM radioligand): 9.61 ± 0.14 | Bmax [9]: 1,778 ± 87 fmol/mg of protein

COc1cc(Br)c(Cc2cc(OC)c(OC)cc2CC(=O)OC(C)(C)C)cc1OC [DIV879, Tert-butyl 2-(2-[(2-bromo-4,5-dimethoxyphenyl)methyl]-4,5-dimethoxyphenyl) Acetate]
EC50 [2]: 12.3 nM | Emax [2]: 58 ± 2% | EC50 ([3]; hMT1): > 10000 nM | Ki [5]: 562 nM | Difference in affinity MT2 versus MT1 [6]: at least 2 logs | Ki [6, 14]: 7.24 nM

COc1ccc2[nH]c([125I])c(CCNC(C)=O)c2c1 [[^125I]-2IMLT, 2-[^125I]-iodomelatonin]
Bmax [9]: 1,998 ± 318 fmol/mg of protein | Bmax [8]: 688 fmol/mg of protein and 688 ± 153 fmol/mg of protein
